Assay results as given in patent publication US4613609A, “Antiarrhythmic imidazoliums” (Schering A. G., priority 1984, dated 1986).
Counter-ions that a name gives are not always drawn. Like-named read-outs stand apart in the source and are kept apart here.

System: Canine Purkinje fiber
Experiment: In vitro electro-physiological screen using canine Purkinje fibers (action potential characteristics, microelectrode)
Type: cell-based
Details: for Emax at 10 µM / Emax at 100 µM / Emax at 30 µM: read-out: MaxAPD95: maximum observed effect on APD95 from control value; for EC10: read-out: C10 APD95: concentration of drug which causes a 10% increase or decrease (-) in APD95 from control value; for EC20: read-out: C20 APD95: concentration of drug which causes a 20% increase or decrease (-) in APD95 from control value; for Vmax: change in the rate of rise of phase 0 of the action potential from control value (in words): concentration not given, NE = no effect; for inhibition at 100 µM: at 100 (concentration, μM)
Experimental: The primary method for evaluating these compounds as antiarrhythmic agents was an in vitro electro-physiological screen using canine Purkinje fibers. Using conventional microelectrode techniques the effects of the drugs on the action potential characteristics of the Purkinje fiber were measured. Both Class I and Class III antiarrhythmic agents can be disinguished using this method.

[1] = Canis lupus familiaris, purkinje, at 10 μM, basic cycle length 1000 milliseconds
[2] = Canis lupus familiaris, purkinje, normal stimulated beat, basic cycle length 1000 milliseconds, NR = not reached
[3] = Canis lupus familiaris, purkinje, basic cycle length 1000 milliseconds
[4] = normal stimulated beat, basic cycle length 1000 milliseconds, NR = not reached
[5] = Canis lupus familiaris, purkinje
[6] = Canis lupus familiaris, purkinje, at 10 (concentration, μM), read-out: Vmax: change in the rate of rise of phase 0 of the action potential from control value
[7] = Canis lupus familiaris, purkinje, read-out: Vmax: change in the rate of rise of phase 0 of the action potential from control value

Row | Compound | Emax at 10 µM [1] | EC10 [2] | EC20 [2] | also measured
1 | CCC[n+]1ccn(CCCCc2ccc(Cl)cc2)c1.O=P([O-])(O)O [Compound I-16, 1-[4-(4-Chlorophenyl)butyl]-3-propylimidazolium dihydrogenphosphate] | 11% | 6 µM |  | Vmax: change in the rate of rise of phase 0 of the action potential from control value (at >10 (concentration, μM)): -20%
2 | O=[N+]([O-])c1ccc(C(O)Cn2ccnc2)cc1 (stereo not drawn) [II-6, α-(4-Nitrophenyl)-1H-imidazole-1-ethanol] |  | 15 µM | 43 µM | Emax at 100 µM [3]: 28%
3 | CCCCCCCn1cc[n+](CC(=O)c2ccc(NS(C)(=O)=O)cc2)c1 [Compound I-39, 1-Heptyl-3-[2-[4-[(methanesulfonyl)amino]phenyl]-2-oxoethyl]imidazolium br omide] | 21% | 1.7 µM | 9 µM | 
4 | O=C(Cn1ccnc1)c1ccc([N+](=O)[O-])cc1 [II-3, 2-(1H-Imidaz-1-yl)-1-(4-nitrophenyl)ethanone hydrochloride] |  | 20 µM | 50 µM | Emax at 100 µM [3]: 29%
5 | CCCCCCCn1cc[n+](CCCCc2ccc(OC)cc2)c1.[Br-] [Compound I-7] |  |  |  | MaxAPD95: maximum observed effect on APD95 from control value (at 10 μM, basic cycle length 1000 milliseconds): 26%; Vmax: change in the rate of rise of phase 0 of the action potential from control value (at 10 (concentration, μM), 10 µM): -12%; EC10 [4]: 0.5 µM; EC20 [4]: 8 µM
6 | O=[N+]([O-])c1ccc(CCn2ccnc2)cc1 [II-8, 1-[2-(4-Nitrophenyl)ethyl]-1H-imidazole hydrochloride] |  | 7 µM | 30 µM | Emax at 100 µM [3]: 29%; inhibition at 0.1 µM (Canis lupus familiaris, purkinje, at 0.1 (concentration, μM), read-out: Vmax: change in the rate of rise of phase 0 of the action potential from control value): 15%
7 | CCCCCCC[n+]1ccn(CCCCc2ccc(Cl)cc2)c1 [Compound I-1, 1-[4-(4-Chlorophenyl)butyl]-3-heptylimidazolium chloride] |  | 12 µM |  | Emax at 30 µM (Canis lupus familiaris, purkinje, at 30 μM, basic cycle length 1000 milliseconds): 27%; inhibition at 15 µM (Canis lupus familiaris, purkinje, at 15 (concentration, μM), read-out: Vmax: change in the rate of rise of phase 0 of the action potential from control value): 20%
8 | Nc1ccc(C(=O)Cn2ccnc2)cc1 [II-5, 1-(4-Aminophenyl)-2-(1H-imidazol-1-yl)ethanone] | 13% | 4 µM |  | Vmax: change in the rate of rise of phase 0 of the action potential from control value (in words): Minimal
9 | CCCCn1cc[n+](CCCCc2ccc(Cl)cc2)c1 [Compound I-21, 1-Butyl-3-[4-(4-chlorophenyl)butyl]imidazolium dihydrogenphosphate] | 25% | 2 µM | 6 µM | 
10 | Cn1cc[n+](CCc2ccc(NS(C)(=O)=O)cc2)c1 [Compound I-43, 1-Methyl-3-[2-[4-((methylsulfonyl)amino)phenyl]ethyl]-1H-imidazolium iodide] | 21% | 2 µM | 8 µM | 
11 | CCCCCCC[n+]1ccn(C(C)CCCc2ccc(Cl)cc2)c1 (stereo not shown) [Compound I-25, 1-[4-(4-Chlorophenyl)-1-methylbutyl]-3-heptylimidazolium 4-methylbenzenesulfonate] |  |  |  | EC10 [5]: 10 µM; Emax at 10 µM [5]: 10%
12 | O=[N+]([O-])c1ccc(CCCCn2ccnc2)cc1 [II-1, 1-[4-(4-Nitrophenyl)butyl]imidazole hydrochloride] | 27% | 1.2 µM | 4 µM | 
13 | CCCCCCC[n+]1ccn(CCCCc2ccc(F)cc2)c1 [Compound I-19, 1-[4-(4-Fluorophenyl)butyl]-3-heptylimidazolium dihydrogenphosphate] | 20% | 1 µM | 10 µM | inhibition at 10 µM [6]: 6%
14 | CCCCCCC[n+]1ccn(CCC#Cc2ccc(Cl)cc2)c1 [Compound I-29, 1-[4-(4-Chlorophenyl)-3-butynyl]-3-heptylimidazolium 4-methylbenzenesulfonate] |  |  |  | EC10 [5]: 20 µM; Emax at 30 µM [5]: 15%; inhibition at 20 µM [7]: 20%
15 | CS(=O)(=O)Nc1ccc(CCn2ccnc2)cc1 [II-7, N-[4-[2-(1H-Imidazol-1-yl)ethyl]phenyl]methanesulfonamide] |  | 2 µM | 10 µM | Emax at 100 µM [3]: 47%
16 | CS(=O)(=O)Nc1ccc(C(O)Cn2ccnc2)cc1 (stereo not shown) [II-4, N-[4-(1-Hydroxy-2-(1H-imidazol-1-yl)ethyl]phenyl]methanesulfonamide] | 23% | 2 µM | 7 µM | inhibition at 10 µM [6]: 15%
17 | Cc1n(CCCCc2ccc(Cl)cc2)cc[n+]1C [Compound I-34, 1-[4-(4-Chlorophenyl)butyl]-2,3-dimethylimidazolium chloride] | 25% | 1.4 µM | 6 µM | 
18 | Cn1cc[n+](CC(=O)c2ccc(NS(C)(=O)=O)cc2)c1 [Compound I-44, 1-Methyl-3-[2-[4-((methylsulfonyl)amino)phenyl]-2-oxoethyl]-1H-imidazoliumbromide] | 38% | 1 µM | 2.3 µM | 
19 | CCCCCCC[n+]1ccn(CCCCc2ccc(NC(C)=O)cc2)c1.Cc1ccc(S(=O)(=O)[O-])cc1 [Compound I-14, 1-[4-(4-(Acetylamino)phenyl)butyl]-3-heptylimidazolium 4-methylbenzenesulfonate] |  |  |  | EC10 [5]: 13 µM; EC20 [5]: 30 µM; Emax at 30 µM [5]: 21%; Vmax: change in the rate of rise of phase 0 of the action potential from control value (in words): increased
20 | CCCCC[n+]1ccn(CCCCc2ccc(Cl)cc2)c1 [Compound I-20, 1-[4-(4-Chlorophenyl)butyl]-3-pentylimidazolium dihydrogenphosphate] | 23% | 0.8 µM | 6 µM | 
21 | CCCCCCCn1cc[n+](CCCCc2ccc(NS(C)(=O)=O)cc2)c1.O=P([O-])(O)O [Compound I-22, 1-Heptyl-3-[4-[4-[[(methyl)sulfonyl]amino]phenyl]butyl]imidazolium dihydrogenphosphate] | 39% | 1.3 µM | 3 µM | Vmax: change in the rate of rise of phase 0 of the action potential from control value (in words): Minimal
22 | Cc1n(C)cc[n+]1CCCCc1ccc(NS(C)(=O)=O)cc1 [Compound I-30, 1,2-Dimethyl-3-[4-[4-[[methanesulfonyl]amino]phenyl]butyl]imidazolium methanesulfonate] | 23% | 1 µM | 7 µM | 
23 | CCCCCCC[n+]1ccn(C/C=C\Cc2ccc(Cl)cc2)c1 [Compound I-42, (Z)-1-[4-(4-Chlorophenyl)-2-butenyl]-3-heptylimidazolium dihydrogenphosphate] |  | 38 µM |  | Emax at 100 µM [3]: 12%; inhibition at 100 µM [7]: 26%
24 | C[n+]1ccn(CC(O)c2ccc(NS(C)(=O)=O)cc2)c1 (stereo not shown) [Compound I-38, 1-[2-Hydroxy-2-[4-[(methanesulfonyl)amino]phenyl]ethyl]-3-methylimidazolium iodide] | 63% | 0.3 µM | 0.8 µM | inhibition at 10 µM [6]: 5%
25 | CS(=O)(=O)Nc1ccc(C(=O)Cn2ccnc2)cc1 [II-2, N-[4-(1H-Imidaz-1-ylacetyl)phenyl]methanesulfonamide] |  | 3 µM | 14 µM | Emax at 100 µM [3]: 67%; inhibition at 100 µM [7]: 15%
